In US12181409B2, “Cell imaging composition and cellular material imaging method using same” (EWHA UNIVERSITY-INDUSTRY COLLABORATION FOUNDATION, priority 2019, dated 2024):

Key:
[1] = system: mitochondria in HeLa cells; assay: Colocalization of Compound 1 with MitoTracker Deep Red, confocal microscopy; format: cell-based; settings: 10 μM Compound 1 and 50 nM MitoTracker Deep Red, 30 minutes
Experimental: FIGS. 10A to 10C show fluorescence images of mitochondria in a cell by Compound 1 (excitation at 405 nm/emission at 490 nm to 590 nm) (FIG. 10A), Mitotracker Deep Red (excitation at 635 nm/emission at 655 nm to 755 nm) (FIG. 10B), and Compound 1 and Mitotracker Deep Red merged (FIG. 10C), respectively, acquired by confocal microscopy after HeLa cells were incubated with 10 μM Compound 1 and 50 nM Mitotracker Deep Red for 30 min, according to an example of the present disclosure.
Referring to FIGS. 10A to 10E, HeLa cells were incubated with 10 μM Compound 1 and 50 nM MitoTracker Deep Red for 30 minutes and a fluorescent image of the mitochondria in the cells was obtained by confocal microscopy.

[2] = target: T1, HSA (Homo sapiens, UniProt P02768); assay: Fluorescent imaging of HSA protein at various pH values; format: biochemical; settings: buffer solutions at pH 7.4, pH 7.5 and pH 8.5
T1 sequence (P02768 25-609): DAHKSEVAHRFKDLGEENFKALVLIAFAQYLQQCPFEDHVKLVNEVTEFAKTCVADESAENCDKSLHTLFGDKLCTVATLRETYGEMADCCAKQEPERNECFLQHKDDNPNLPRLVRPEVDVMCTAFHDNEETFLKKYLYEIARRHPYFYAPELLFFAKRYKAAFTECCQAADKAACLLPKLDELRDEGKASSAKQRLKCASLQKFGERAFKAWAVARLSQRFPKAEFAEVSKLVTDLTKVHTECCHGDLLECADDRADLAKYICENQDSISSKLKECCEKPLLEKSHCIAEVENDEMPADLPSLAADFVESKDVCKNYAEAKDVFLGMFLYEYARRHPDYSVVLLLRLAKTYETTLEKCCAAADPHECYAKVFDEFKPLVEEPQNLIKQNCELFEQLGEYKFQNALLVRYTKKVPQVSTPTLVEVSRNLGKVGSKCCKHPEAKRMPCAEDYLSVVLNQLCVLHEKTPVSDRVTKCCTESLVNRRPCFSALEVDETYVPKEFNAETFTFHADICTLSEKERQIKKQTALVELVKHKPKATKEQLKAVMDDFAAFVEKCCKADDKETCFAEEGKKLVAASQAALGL
Experimental: After Compound 1 and HSA protein were incubated in buffer solutions at various pH values, fluorescence intensity profiles and fluorescent images depending on pH were compared.

[3] = target: T1, HSA; assay: Fluorescent imaging of various proteins; format: biochemical; settings: 3 μM Compound 1, various proteins in DMSO, 0.5 hours and 1.5 hours
Experimental: FIGS. 14D(i) to 14D(vi) show fluorescence imaging of proteins measured after incubating 3 μM Compound 1 with various proteins in DMSO for 0.5 hours and 1.5 hours, respectively (λex=410 nm), according to an example of the present disclosure.
After 3 μM Compound 1 and various types of proteins in DMSO were incubated for 0.5 hours and 1.5 hours, fluorescence intensity profiles and fluorescent images depending on the types of proteins were compared.

[4] = system: HeLa cells; assay: Colocalization of Compound 1 with ER-Tracker Red, confocal microscopy; format: cell-based; settings: 10 μM Compound 1 and 1 μM ER-Tracker Red, 30 minutes
Experimental: FIGS. 11A to 11C show fluorescence images of mitochondria in a cell by Compound 1 (excitation at 405 nm/emission at 490 nm to 590 nm) (FIG. 11A), ER(endoplasmic reticulum)-tracker Red (excitation at 559 nm/emission at 576 nm to 675 nm) (FIG. 11B), and Compound 1 and ER-tracker Red merged (FIG. 11C), respectively, acquired by confocal microscopy after HeLa cells were incubated with 10 μM Compound 1 and 1 μM ER-tracker Red for 30 min, according to an example of the present disclosure.
Referring to FIGS. 11A to 11C, HeLa cells were incubated with 10 μM Compound 1 and 1 μM ER-Tracker Red for 30 minutes and a fluorescent image of the mitochondria in the cells was obtained by confocal microscopy.

[5] = system: HeLa cells; assay: Cytotoxicity test (MTT); format: cell-based; settings: 30 μM Compound 1, 24 hours, MTT 4 hours, untreated sample = 100%
Experimental: Referring to FIG. 13, HeLa cells were treated with various concentrations of Compound 1 for 24 hours, cultured in a medium containing MTT for 4 hours, and then the viability of the cells depending on the concentration of Compound 1 was checked. When the absorbance of a sample not treated with Compound 1 was set to 100%, it was confirmed that the cells treated with 30 μM Compound 1 survived about 80%.

O=C(c1ccccc1)c1ccccc1NCc1ccccc1B(O)O [Compound 1]
Pearson correlation coefficient [1]: 0.81±0.02 | degree of agreement of fluorescent image [1]: about 81% | fluorescent imaging performance for HSA depending on pH [2]: fluorescent imaging performance specific to HSA protein | fluorescent imaging performance and selectivity among proteins [3]: fluorescent imaging performance and selectivity specific to HSA | Pearson correlation coefficient [4]: 0.85±0.01 | degree of agreement of fluorescent image [4]: about 85% | cell viability (survival) [5]: about 80%
